What was measured:
Pasteurella multocida = test: Treatment of Pasteurella infections in chicks (Table V); type: in vivo, one-day-old chicks; settings: Pasteurella multocida, sc, 4 h; 30 mg/kg by subcutaneous injection one and four hours post challenge; read-out: Deaths in Treated Chicks/Number Treated (converted)
Summary of the method: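 One-day-old chicks challenged subcutaneously with avian P. multocida (0.1 ml of 10^-3 dilution of 20-hour tryptose broth culture). Esters given at 30 mg/kg subcutaneously at 1 and 4 hours post challenge. Untreated infected controls, ten per group.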

[1] = system: Staphylococcus aureus S13E; test: MIC, standard agar-dilution assay (Table II); type: cell-based; set-up: unit not given here
Protocol: (§1) The MIC's in Table II were determined by standard agar-dilution assays. The MIC's in Table III were obtained using a conventional broth-dilution microtiter test.

[2] = system: Staphylococcus aureus X1.1; test: MIC, standard agar-dilution assay (Table II); type: cell-based; set-up: unit not given here
Protocol: as §1

[3] = system: Streptococcus pneumoniae Park I; test: MIC, standard agar-dilution assay (Table II); type: cell-based; set-up: unit not given here
Protocol: as §1

[4] = system: Staphylococcus epidermidis EPI1; test: MIC, standard agar-dilution assay (Table II); type: cell-based; set-up: unit not given here
Protocol: as §1

[5] = system: Haemophilus influenzae Holt; test: MIC, standard agar-dilution assay (Table II); type: cell-based; set-up: unit not given here; settings: ampicillin-sensitive strain
Protocol: as §1

[6] = system: Streptococcus Group D X66; test: MIC, standard agar-dilution assay (Table II); type: cell-based; set-up: unit not given here
Protocol: as §1

[7] = system: Streptococcus Group D 9960; test: MIC, standard agar-dilution assay (Table II); type: cell-based; set-up: unit not given here
Protocol: as §1

[8] = system: Staphylococcus aureus X400; test: MIC, standard agar-dilution assay (Table II); type: cell-based; set-up: unit not given here; settings: Staphylococcus aureus X400, methicillin-resistant strain
Protocol: as §1

[9] = system: Streptococcus pyogenes C203; test: MIC, standard agar-dilution assay (Table II); type: cell-based; set-up: unit not given here
Protocol: as §1

[10] = system: Haemophilus influenzae R252; test: MIC, standard agar-dilution assay (Table II); type: cell-based; set-up: unit not given here; settings: Haemophilus influenzae R252, ampicillin-resistant strain
Protocol: as §1

[11] = system: Staphylococcus aureus V41; test: MIC, standard agar-dilution assay (Table II); type: cell-based; set-up: unit not given here; settings: Staphylococcus aureus V41, penicillin-resistant strain
Protocol: as §1

[12] = system: Staphylococcus epidermidis EPI2; test: MIC, standard agar-dilution assay (Table II); type: cell-based; set-up: unit not given here
Protocol: as §1

[13] = system: Pasteurella multocida 17E; test: MIC, broth-dilution microtiter test (Table III); type: cell-based; set-up: unit not given here; settings: bovine isolate
Protocol: as §1

[14] = system: Pasteurella multocida 68C; test: MIC, broth-dilution microtiter test (Table III); type: cell-based; set-up: unit not given here
Protocol: as §1

Mycoplasma synoviae = test: MIC, broth-dilution microtiter test (Table III); type: cell-based; set-up: unit not given here
Protocol: as §1

Streptococcus sp. 80 = test: MIC, broth-dilution microtiter test (Table III); type: cell-based; set-up: unit not given here
Protocol: as §1

Staphylococcus aureus = test: MIC, broth-dilution microtiter test (Table III); type: cell-based; set-up: unit not given here
Protocol: as §1

Mycoplasma hyorhinis = test: MIC, broth-dilution microtiter test (Table III); type: cell-based; set-up: unit not given here
Protocol: as §1

[15] = system: Pasteurella haemolytica 41D; test: MIC, broth-dilution microtiter test (Table III); type: cell-based; set-up: unit not given here
Protocol: as §1

[16] = system: Pasteurella multocida 22A; test: MIC, broth-dilution microtiter test (Table III); type: cell-based; set-up: unit not given here
Protocol: as §1

[17] = system: Pasteurella haemolytica 22C; test: MIC, broth-dilution microtiter test (Table III); type: cell-based; set-up: unit not given here
Protocol: as §1

[18] = system: Pasteurella haemolytica 23C; test: MIC, broth-dilution microtiter test (Table III); type: cell-based; set-up: unit not given here
Protocol: as §1

[19] = system: Pasteurella multocida 60A; test: MIC, broth-dilution microtiter test (Table III); type: cell-based; set-up: unit not given here; settings: avian isolate
Protocol: as §1

Mycoplasma gallisepticum = test: MIC, broth-dilution microtiter test (Table III); type: cell-based; set-up: unit not given here
Protocol: as §1

[20] = system: Pasteurella multocida 40G; test: MIC, broth-dilution microtiter test (Table III); type: cell-based; set-up: unit not given here
Protocol: as §1

Row | SMILES | mortality at 30 mg/kg (Pasteurella multocida) | minimal inhibitory concentration (MIC) [1] | minimal inhibitory concentration (MIC) [2] | minimal inhibitory concentration (MIC) [3] | minimal inhibitory concentration (MIC) [4] | minimal inhibitory concentration (MIC) [5] | minimal inhibitory concentration (MIC) [6] | minimal inhibitory concentration (MIC) [7] | minimal inhibitory concentration (MIC) [8] | minimal inhibitory concentration (MIC) [9] | minimal inhibitory concentration (MIC) [10] | minimal inhibitory concentration (MIC) [11] | minimal inhibitory concentration (MIC) [12] | minimal inhibitory concentration (MIC) [13] | minimal inhibitory concentration (MIC) [14] | minimal inhibitory concentration (MIC) (Mycoplasma synoviae) | minimal inhibitory concentration (MIC) (Streptococcus sp. 80) | minimal inhibitory concentration (MIC) (Staphylococcus aureus) | minimal inhibitory concentration (MIC) (Mycoplasma hyorhinis) | minimal inhibitory concentration (MIC) [15] | also measured
1 | CCC1OC(=O)CC(O)C(C)C(OC2OC(C)C(O)C(N(C)C)C2OC(C)=O)C(CC=O)CC(C)C(=O)C=CC(C)=CC1COC(=O)NCc1ccccc1 (stereo not drawn) [Compound 75] | 100% | 0.125 | 0.125 | 0.03 | 0.125 | 0.5 | 0.25 | 0.125 | 0.25 | 0.125 | 1 | 0.25 | 0.125 | 6.25 | 3.12 | < 0.048 | 0.39 | 0.78 | 0.78 | 6.25 | minimal inhibitory concentration (MIC) [16]: > 50; minimal inhibitory concentration (MIC) [17]: 6.25; minimal inhibitory concentration (MIC) [18]: 3.12; minimal inhibitory concentration (MIC) [19]: 6.25; minimal inhibitory concentration (MIC) (Mycoplasma gallisepticum): 0.048; minimal inhibitory concentration (MIC) [20]: 12.5
2 | CCC1OC(=O)CC(O)C(C)C(OC2OC(C)C(O)C(N(C)C)C2O)C(CC=O)CC(C)C(=O)C=CC(C)=CC1COC(=O)Cc1ccc([N+](=O)[O-])cc1 (stereo not drawn) [Compound 65] | 73.3% | 0.125 | 0.125 | 0.03 | 0.125 | 1 | 0.125 | 0.125 | 0.125 | 0.06 | 1 | 0.125 | 0.125 | 3.12 | 3.12 | < 0.05 | 0.195 | 0.39 | 0.78 | 3.12 | minimal inhibitory concentration (MIC) [16]: 3.12; minimal inhibitory concentration (MIC) [17]: 3.12; minimal inhibitory concentration (MIC) [18]: 3.12; minimal inhibitory concentration (MIC) [19]: 3.12; minimal inhibitory concentration (MIC) (Mycoplasma gallisepticum): 0.195; minimal inhibitory concentration (MIC) [20]: 1.56
3 | CCC1OC(=O)CC(O)C(C)C(OC2OC(C)C(OC(C)=O)C(N(C)C)C2OC(C)=O)C(CC=O)CC(C)C(=O)C=CC(C)=CC1COS(=O)(=O)c1ccc(C)cc1 (stereo not drawn) [Compound 55] | 100% | 0.25 | 0.125 | 0.03 | 0.25 | 1 | 0.125 | 0.125 | 0.25 | 0.06 | 1 | 0.125 | 0.25 | 3.12 | 3.12 | 0.05 | 0.05 | 0.195 | 0.78 | 6.25 | minimal inhibitory concentration (MIC) [16]: 6.25; minimal inhibitory concentration (MIC) [17]: 3.12; minimal inhibitory concentration (MIC) [18]: 3.12; minimal inhibitory concentration (MIC) [19]: 3.12; minimal inhibitory concentration (MIC) (Mycoplasma gallisepticum): 0.05; minimal inhibitory concentration (MIC) [20]: 6.25
4 | CCC1OC(=O)CC(O)C(C)C(OC2OC(C)C(O)C(N(C)C)C2O)C(CC=O)CC(C)C(=O)C=CC(C)=CC1COS(=O)(=O)c1ccc(NC(C)=O)cc1 (stereo not drawn) [Compound 56, 23-O-(p-Acetamidobenzenesulfonyl)-OMT] | 100% | 1 | 1 | 0.06 | 0.5 | 2 | 1 | 1 | 2 | 0.125 | 2 | 2 | 2 | 3.12 | 3.12 | 0.78 | 0.195 | 0.78 | 12.5 | 6.25 | minimal inhibitory concentration (MIC) [16]: 6.25; minimal inhibitory concentration (MIC) [17]: 6.25; minimal inhibitory concentration (MIC) [18]: 6.25; minimal inhibitory concentration (MIC) [19]: 3.12; minimal inhibitory concentration (MIC) (Mycoplasma gallisepticum): 0.39; minimal inhibitory concentration (MIC) [20]: 6.25
5 | CCC1OC(=O)CC(O)C(C)C(OC2OC(C)C(O)C(N(C)C)C2OC(C)=O)C(CC=O)CC(C)C(=O)C=CC(C)=CC1COC(=O)C(C)(C)C (stereo not drawn) [Compound 67] | 80% | 0.25 | 0.25 | 0.06 | 0.25 | 1 | 0.25 | 0.25 | 0.25 | 0.125 | 1 | 0.25 | 0.25 | 3.12 | 1.56 | < 0.048 | < 0.78 | 1.56 | 0.39 | 6.25 | minimal inhibitory concentration (MIC) [16]: 3.12; minimal inhibitory concentration (MIC) [17]: 12.5; minimal inhibitory concentration (MIC) [18]: 6.25; minimal inhibitory concentration (MIC) [19]: 3.12; minimal inhibitory concentration (MIC) (Mycoplasma gallisepticum): < 0.048; minimal inhibitory concentration (MIC) [20]: 3.12
6 | CCC1OC(=O)CC(O)C(C)C(OC2OC(C)C(O)C(N(C)C)C2O)C(CC=O)CC(C)C(=O)C=CC(C)=CC1COC(=O)Cc1cc(OC)ccc1OC (stereo not drawn) [Compound 63] | 75% | 0.25 | 0.125 | 0.03 | 0.25 | 1 | 0.125 | 0.25 | 0.25 | 0.06 | 2 | 0.25 | 0.25 | 6.25 | 6.25 | < 0.05 | 0.195 | 1.56 | 1.56 | 12.5 | minimal inhibitory concentration (MIC) [16]: 6.25; minimal inhibitory concentration (MIC) [17]: 6.25; minimal inhibitory concentration (MIC) [18]: 6.25; minimal inhibitory concentration (MIC) [19]: 3.12; minimal inhibitory concentration (MIC) (Mycoplasma gallisepticum): 0.39; minimal inhibitory concentration (MIC) [20]: 3.12

Source: patent publication US4401660A, “Ester derivatives of 5-O-mycaminosyl tylonolide and method of using same” (Eli Lilly and Company, priority 1981, dated 1983)
